Test results published in article PMC11435625, “In Vitro Hepatic Clearance Evaluations of Per- and Polyfluoroalkyl Substances (PFAS) across Multiple Structural Categories” (Toxics, 2024).

What was measured:
[1] = tested on: pooled primary human hepatocyte suspensions; assay: Hepatic clearance assay (substrate depletion, LC-MS); settings: in µL/min/10^6 cells; for CLint for HTTK: CLint value carried into HTTK/IVIVE; for in vitro CLint exp assay / Unadj Clint: pooled primary human hepatocyte suspensions; for Unadj Clint: unadjusted hepatic intrinsic clearance, Table S4
In short: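 Substrate depletion at 1 μM PFAS in pooled cryopreserved human hepatocytes (~0.5 × 10^6 viable cells/mL, 50-donor pool), 37 °C with shaking, sampled 0–240 min in triplicate. Quantified by LC-MS in negative ion mode against matrix-matched calibration; media-only or heat-inactivated cells as nonmetabolic-loss controls.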

[2] = IVIVE: steady-state concentration (Css), generic HTTK model; set-up: species or system human; settings: for Css (mg/L) / Css (uM): Assuming 1 mg/kg/day dose rate, BW 70 kg; for CLhep: QL 1500000 uL/min; for Fub: fub=fup/(B:P), Fub set to 1 if needed; for CLint: scaled to whole liver: HPGL 110 mill cells/g, Vl 1596 g
In short: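 Human Css estimated by IVIVE: plasma protein binding converted to blood fraction unbound via blood-to-plasma partitioning, and experimental Clint scaled with liver scalars to whole liver clearance. AEDs then derived by reverse dosimetry from Css and PFAS in vitro POD, defined as fifth-percentile AC50.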

plasma protein = settings: fraction unbound in plasma, input for IVIVE calculations; cited from earlier work
[3] = tested on: pooled primary human hepatocyte suspensions; assay: Bayesian (MCMC, invitroTKstats) analysis of hepatic clearance data; settings: Level-4 Bayesian estimate, posterior median; Clint.1 series (Clint.10 all NA)
From the text: Markov Chain Monte Carlo was employed in a Bayesian analysis to estimate uncertainty of the hepatic clearance point measures as previously described, but with some modifications [10]. Briefly, after organizing PFAS-level data into a single file, the relationship between the relevant measurement process parameters was described in a graphic model in JAGS language [13] interfaced through R. For hepatic clearance data, the model describes the PFAS-specific mass spectrometric response factor between analyte peak ratio (to internal standard) and chemical concentration. […] The assumed prior for whether the chemical degraded abiotically in vitro followed a Bernoulli distribution with a 5% chance of abiotic degradation. Separate biotic and abiotic components for chemical elimination were estimated, each with a slope following an assumed uniform prior distribution bounded between the zero and the -log (limit of quantitation/Ctest). In scenarios where an external calibration without internal standard was used, the response factor was calculated using the analyte peak alone, introducing additional uncertainty due to the inability to normalize for recovery issues. The model was analyzed jointly by JAGS using five Markov chains. Convergence was identified by requiring the five chains to be consistent, as indicated by the potential scale reduction factor [14] being less than 1.1. The analysis was performed using EPA-developed R package invitroTKstats, available upon request.

| Compound | CLint for HTTK [1] | in vitro CLint exp assay [1] | Css (mg/L) [2] [mg/L] | Css (uM) [2] [µM] | CLhep [2] [L/h] | Fub [2] | CLint [2] [µL/min] | Mean fu (plasma protein) | Clint.1.Med [3] | Unadj Clint [1] |
| --- | --- | --- | --- | --- | --- | --- | --- | --- | --- | --- |
| O=C(O)C(F)(F)C(F)(F)C(F)(F)C(F)(F)C(F)(F)C(F)(F)C(F)(F)C(F)(F)C(F)(F)C(F)F | 0 | 0 | 160.90 | 294.69 | 0.000 | 0.002727 | 0 | 0.0015 | 0 |  |
| O=C(O)CCC(F)(F)C(F)(F)C(F)(F)C(F)(F)C(F)(F)F | 11.84 | 11.84 | 2.11 | 6.18 | 1.318 | 0.01073 | 2078630 | 0.0059 | 19 |  |
| O=S(=O)(O)CCC(F)(F)C(F)(F)C(F)(F)C(F)(F)F | 4.28 | 4.28 | 6.27 | 19.12 | 0.408 | 0.009091 | 751397 | 0.005 | 0 |  |
| O=S(=O)(O)CCC(F)(F)C(F)(F)C(F)(F)C(F)(F)C(F)(F)C(F)(F)F | 1.4 | 1.4 | 5.29 | 12.36 | 0.382 | 0.026 | 245784 | 0.0143 | 0 |  |
| O=S(=O)(O)CCC(F)(F)C(F)(F)C(F)(F)C(F)(F)C(F)(F)C(F)(F)C(F)(F)C(F)(F)F | 1.53 | 1.53 | 1.81 | 3.42 | 1.146 | 0.072 | 268607 | 0.0396 | 0 |  |
| O=C(O)C(F)(F)OC(F)(F)C(F)(F)OC(F)(F)F | 0 | 0 | 77.85 | 263.04 | 0.000 | 0.005636 | 0 | 0.0031 | 0 |  |
| O=S(=O)([O-])C(F)(F)C(F)(F)C(F)(F)C(F)(F)F.[K+] | 0 | 0 | 52.47 | 174.92 | 0.000 | 0.008364 | 0 | 0.0046 | 0 |  |
| O=P(O)(O)CCC(F)(F)C(F)(F)C(F)(F)C(F)(F)C(F)(F)C(F)(F)F [2-(Perfluorohexyl)ethylphosphonic acid] | 0 | 0 | 19.62 | 45.85 | 0.000 | 0.02236 | 0 | 0.0123 | 0 | 0.71 |
| O=C(O)C(F)(F)C(F)(F)C(F)(F)C(F)(F)C(F)(F)C(F)(F)C(F)(F)C(F)F [9-H-Perfluorononanoic acid (9H-PFNA)] | 0 | 0 | 268.16 | 601.28 | 0.000 | 0.001636 | 0 | 0.0009 | 0 |  |
| O=S(=O)(O)C(F)(F)C(F)(F)OC(F)(F)C(F)(F)F [Perfluoro(2-ethoxyethane)sulfonic acid] | 5.51 | 5.51 | 16.68 | 52.79 | 0.158 | 0.002727 | 967336 | 0.0015 | 266 | 5.51 |
| O=C(O)C(F)(F)OC(F)(F)C(F)(F)OC(F)(F)C(F)(F)OC(F)(F)F [Perfluoro-3,6,9-trioxadecanoic acid] | 0 | 0 | 804.48 | 1952.80 | 0.000 | 0.0005455 | 0 | 0.0003 | 0 | 0.00 |
| O=C(O)C(F)(F)OC(F)(F)C(F)(F)OC(F)(F)C(F)(F)C(F)(F)C(F)(F)F [Perfluoro-3,6-dioxadecanoic acid] | 0 | 0 | 344.78 | 773.10 | 0.000 | 0.001273 | 0 | 0.0007 | 0 | 0.00 |
| O=C(O)C(F)(F)C(F)(F)OC(F)(F)F [Perfluoro-3-methoxypropanoic acid] |  |  |  |  |  |  |  |  | 0 | 0.00 |
| O=S(=O)(O)C(F)(F)C(F)(F)C(F)(F)C(F)(F)F [Perfluorobutanesulfonic acid (PFBS)] | 4.75 | 4.75 | 2.25 | 7.51 | 1.150 | 0.02327 | 833910 | 0.0128 | 0 |  |
| O=C(O)C(F)(F)C(F)(F)C(F)(F)F [Perfluorobutanoic acid (PFBA)] | 0 | 0 | 2.60 | 12.13 | 0.000 | 0.1691 | 0 | 0.093 | 0 |  |
| O=C(O)C(F)(F)C(F)(F)C(F)(F)C(F)(F)C(F)(F)C(F)(F)C(F)(F)C(F)(F)C(F)(F)F [Perfluorodecanoic acid (PFDA)] | 0 | 0 | 89.39 | 173.91 | 0.000 | 0.004909 | 0 | 0.0027 | 0 |  |
| O=C(O)C(F)(F)C(F)(F)C(F)(F)C(F)(F)C(F)(F)C(F)(F)F [Perfluoroheptanoic acid (PFHpA)] | 0 | 3.12 | 603.36 | 1657.68 | 0.000 | 0.0007273 | 0 | 0.0004 | 0 |  |
| O=C(Cl)C(F)(F)C(F)(F)C(F)(F)C(F)(F)C(F)(F)C(F)(F)F [Perfluoroheptanoyl chloride] |  |  |  |  |  |  |  |  | 0 | 0.00 |
| NS(=O)(=O)C(F)(F)C(F)(F)C(F)(F)C(F)(F)C(F)(F)C(F)(F)F [Perfluorohexanesulfonamide] |  |  |  |  |  |  |  |  | 0 | 0.00 |
| O=C(O)C(F)(F)C(F)(F)C(F)(F)C(F)(F)C(F)(F)F [Perfluorohexanoic acid (PFHxA)] | 0 | 1.62 | 35.49 | 113.04 | 0.000 | 0.01236 | 0 | 0.0068 | 0 |  |
| O=S(=O)(O)C(F)(F)C(F)(F)C(F)(F)C(F)(F)C(F)(F)C(F)(F)C(F)(F)C(F)(F)F [Perfluorooctanesulfonate] |  |  |  |  |  |  |  |  | 0 | 0.00 |
| O=C(O)C(F)(F)C(F)(F)C(F)(F)C(F)(F)C(F)(F)C(F)(F)C(F)(F)C(F)(F)C(F)(F)C(F)(F)F [Perfluoroundecanoic acid (PFUnDA)] | 0 | 0 | 20.81 | 36.89 | 0.000 | 0.02109 | 0 | 0.0116 | 0 |  |
| O=S(=O)([O-])C(F)(F)C(F)(F)C(F)(F)C(F)(F)C(F)(F)C(F)(F)F.[K+] [Potassium perfluorohexanesulfonate] |  |  |  |  |  |  |  |  | 0 | 0.00 |
| O=C([O-])C(F)(F)C(F)(F)C(F)(F)C(F)(F)C(F)(F)C(F)(F)C(F)(F)F.[K+] [Potassium perfluorooctanoate (KPFOA)] | 0 | 0 | 134.08 | 323.88 | 0.000 | 0.003273 | 0 | 0.0018 | 0 |  |
| O=C([O-])C(F)(F)C(F)(F)C(F)(F)C(F)(F)C(F)(F)C(F)(F)C(F)(F)F.[Na+] [Sodium perfluorooctanoate (NaPFOA)] | 0 | 0 | 402.24 | 971.65 | 0.000 | 0.001091 | 0 | 0.0006 | 0 |  |
